Some results are limits rather than exact numbers.

For this experiment, the target named is CDK4 (Homo sapiens, UniProt P11802+Q16531). The experiment in a line: CDK4 percentage degradation in Calu-1 cells (Table 6). As to conditions: 16 hours; for inhibition at 0.04 µM: 40 nM; for inhibition at 0.2 µM: 200 nM. The arrangement: Cells that express cyclin D1-3 and CDK4/6 proteins were treated with heterobifunctional compounds; endogenous in cells; host or cells: Calu-1. It counts as cell-based. Put shortly: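 Calu-1 cells exposed to heterobifunctional compounds at 40 nM or 200 nM for 16 h. Cyclin D1 and CDK4 levels measured by Western blot of RIPA lysates (BCA-normalised loading), bands quantified by densitometry and expressed as percentage degradation.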
Sequence of CDK4 (P11802 2-303 limits assumed): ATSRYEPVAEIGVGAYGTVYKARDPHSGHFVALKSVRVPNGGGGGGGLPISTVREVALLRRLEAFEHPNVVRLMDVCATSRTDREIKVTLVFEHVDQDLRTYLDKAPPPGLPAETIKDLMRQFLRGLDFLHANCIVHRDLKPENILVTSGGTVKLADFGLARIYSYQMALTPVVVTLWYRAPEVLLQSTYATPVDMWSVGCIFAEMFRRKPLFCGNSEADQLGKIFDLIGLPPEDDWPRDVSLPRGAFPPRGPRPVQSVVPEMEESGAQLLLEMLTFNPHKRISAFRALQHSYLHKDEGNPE
Sequence of CDK4 (P24385 whole entry partner): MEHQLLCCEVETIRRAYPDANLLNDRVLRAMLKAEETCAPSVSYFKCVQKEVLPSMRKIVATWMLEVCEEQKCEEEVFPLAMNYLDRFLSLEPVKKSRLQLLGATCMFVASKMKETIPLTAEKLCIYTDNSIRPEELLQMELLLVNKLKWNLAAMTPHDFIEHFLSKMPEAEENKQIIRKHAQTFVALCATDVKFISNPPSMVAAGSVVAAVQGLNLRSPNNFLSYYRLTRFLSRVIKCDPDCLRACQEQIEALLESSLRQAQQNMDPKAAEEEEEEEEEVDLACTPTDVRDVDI
Sequence of CDK4 (Q16531 2-1140 limits assumed): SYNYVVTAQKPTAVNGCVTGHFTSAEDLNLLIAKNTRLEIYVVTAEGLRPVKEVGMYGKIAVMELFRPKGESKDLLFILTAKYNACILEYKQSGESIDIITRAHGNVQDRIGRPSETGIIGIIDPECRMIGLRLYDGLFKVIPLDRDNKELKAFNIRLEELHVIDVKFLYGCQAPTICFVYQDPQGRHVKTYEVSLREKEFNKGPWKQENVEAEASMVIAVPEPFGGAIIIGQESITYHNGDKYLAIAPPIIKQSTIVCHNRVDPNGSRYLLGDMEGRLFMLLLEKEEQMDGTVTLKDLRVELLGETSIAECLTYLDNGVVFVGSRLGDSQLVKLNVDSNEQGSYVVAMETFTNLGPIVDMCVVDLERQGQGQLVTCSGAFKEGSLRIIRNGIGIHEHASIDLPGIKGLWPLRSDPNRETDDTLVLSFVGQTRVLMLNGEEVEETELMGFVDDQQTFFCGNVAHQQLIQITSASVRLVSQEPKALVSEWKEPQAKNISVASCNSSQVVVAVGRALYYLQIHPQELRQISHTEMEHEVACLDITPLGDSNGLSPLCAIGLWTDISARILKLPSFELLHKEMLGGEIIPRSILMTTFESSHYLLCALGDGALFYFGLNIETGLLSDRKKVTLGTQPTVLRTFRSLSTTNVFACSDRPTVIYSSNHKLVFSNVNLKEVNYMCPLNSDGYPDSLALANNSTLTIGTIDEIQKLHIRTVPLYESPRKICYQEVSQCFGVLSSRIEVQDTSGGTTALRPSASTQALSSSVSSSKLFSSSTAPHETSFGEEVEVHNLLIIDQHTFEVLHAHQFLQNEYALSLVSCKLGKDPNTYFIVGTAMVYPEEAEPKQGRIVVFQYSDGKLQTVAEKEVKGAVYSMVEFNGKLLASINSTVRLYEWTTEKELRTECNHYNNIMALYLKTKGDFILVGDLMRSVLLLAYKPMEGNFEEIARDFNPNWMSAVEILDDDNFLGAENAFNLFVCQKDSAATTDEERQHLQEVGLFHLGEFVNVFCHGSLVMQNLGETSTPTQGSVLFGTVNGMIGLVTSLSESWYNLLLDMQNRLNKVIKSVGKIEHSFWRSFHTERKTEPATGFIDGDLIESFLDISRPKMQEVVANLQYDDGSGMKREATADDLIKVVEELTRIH

`CNc1ccc(C(=O)Nc2ccc(N(C)C)nn2)c(NC2CC3(CC(CC(=O)N4CCN(c5ccc(Nc6ncc7c(C)c(C(C)=O)c(=O)n(C8CCCC8)c7n6)nc5)CC4)C3)C2)n1` (centres unmarked) [CPD-147, 2-((6-(2-(4-(6-((6-acetyl-8-cyclopentyl-5-methyl-7-oxo-7,8-dihydropyrido[2,3-d]pyrimidin-2-yl)amino)pyridin-3-yl)piperazin-1-yl)-2-oxoethyl)spiro[3.3]heptan-2-yl)amino)-N-(6-(dimethylamino)pyridazin-3-yl)-6-(methylamino)nicotinamide]: the inhibition at 0.04 µM fell in the range of 30 to 50% and the inhibition at 0.2 µM lay in the range of 50 to 80%.

On to `CNc1ccc(C(=O)Nc2ccc(N(C)C)nn2)c(NC2CC(CC(=O)N3CCN(c4ccc(Nc5ncc6c(C)c(C(C)=O)c(=O)n(C7CCCC7)c6n5)nc4)CC3)C2)n1` (centres unmarked) [CPD-148, 2-((3-(2-(4-(6-((6-acetyl-8-cyclopentyl-5-methyl-7-oxo-7,8-dihydropyrido[2,3-d]pyrimidin-2-yl)amino)pyridin-3-yl)piperazin-1-yl)-2-oxoethyl)cyclobutyl)amino)-N-(6-(dimethylamino)pyridazin-3-yl)-6-(methylamino)nicotinamide], for which the inhibition at 0.04 µM is 50 to 80% and the inhibition at 0.2 µM is greater than 80%.

As for `CNc1ccc(C(=O)Nc2ccc(N(C)C)nn2)c(NC2CC(NC(=O)CN3CCN(c4ccc(Nc5ncc6c(C)c(C(C)=O)c(=O)n(C7CCCC7)c6n5)nc4)CC3)C2)n1` (centres unmarked) [CPD-149, 2-((3-(2-(4-(6-((6-acetyl-8-cyclopentyl-5-methyl-7-oxo-7,8-dihydropyrido[2,3-d]pyrimidin-2-yl)amino)pyridin-3-yl)piperazin-1-yl)acetamido)cyclobutyl)amino)-N-(6-(dimethylamino)pyridazin-3-yl)-6-(methylamino)nicotinamide], the inhibition at 0.04 µM lay within 30 to 50% and the inhibition at 0.2 µM lay within 50 to 80%.

As to `CNc1ccc(C(=O)Nc2ccc(N(C)C)nn2)c(NC2CC(NC(=O)N3CCN(c4ccc(Nc5ncc6c(C)c(C(C)=O)c(=O)n(C7CCCC7)c6n5)nc4)CC3)C2)n1` (centres unmarked) [CPD-151, 4-(6-((6-acetyl-8-cyclopentyl-5-methyl-7-oxo-7,8-dihydropyrido[2,3-d]pyrimidin-2-yl)amino)pyridin-3-yl)-N-(3-((3-((6-(dimethylamino)pyridazin-3-yl)carbamoyl)-6-(methylamino)pyridin-2-yl)amino)cyclobutyl)piperazine-1-carboxamide], the inhibition at 0.04 µM fell in the range of 50 to 80% and the inhibition at 0.2 µM is greater than 80%.

For the molecule `CNc1ccc(C(=O)Nc2cn(C)cn2)c(NC2CC3(CC(NC(=O)CN4CCN(c5ccc(Nc6ncc7c(C)c(C(C)=O)c(=O)n(C8CCCC8)c7n6)nc5)CC4)C3)C2)n1` (centres unmarked) [CPD-152, 2-((6-(2-(4-(6-((6-acetyl-8-cyclopentyl-5-methyl-7-oxo-7,8-dihydropyrido[2,3-d]pyrimidin-2-yl)amino)pyridin-3-yl)piperazin-1-yl)acetamido)spiro[3.3]heptan-2-yl)amino)-N-(1-methyl-1H-imidazol-4-yl)-6-(methylamino)nicotinamide], the inhibition at 0.04 µM fell in the range of 30 to 50% and the inhibition at 0.2 µM lay in the range of 50 to 80%.

As for `CNc1ccc(C(=O)Nc2ccnn2C)c(NC2CC3(CC(NC(=O)CN4CCN(c5ccc(Nc6ncc7c(C)c(C(C)=O)c(=O)n(C8CCCC8)c7n6)nc5)CC4)C3)C2)n1` (centres unmarked) [CPD-153, 2-((6-(2-(4-(6-((6-acetyl-8-cyclopentyl-5-methyl-7-oxo-7,8-dihydropyrido[2,3-d]pyrimidin-2-yl)amino)pyridin-3-yl)piperazin-1-yl)acetamido)spiro[3.3]heptan-2-yl)amino)-N-(1-methyl-1H-pyrazol-5-yl)-6-(methylamino)nicotinamide], the inhibition at 0.04 µM was less than 30% and the inhibition at 0.2 µM was less than 30%.

`CNc1ccc(C(=O)Nc2cccc(C3CC3)n2)c(NC[C@H]2CC[C@H](NC(=O)CN3CCN(c4ccc(Nc5ncc6c(C)c(C(C)=O)c(=O)n(C7CCCC7)c6n5)nc4)CC3)CC2)n1` [CPD-154, 2-(((trans-4-(2-(4-(6-((6-acetyl-8-cyclopentyl-5-methyl-7-oxo-7,8-dihydropyrido[2,3-d]pyrimidin-2-yl)amino)pyridin-3-yl)piperazin-1-yl)acetamido)cyclohexyl)methyl)amino)-N-(6-cyclopropylpyridin-2-yl)-6-(methylamino)nicotinamide] registered an inhibition at 0.04 µM of less than 30% and an inhibition at 0.2 µM of less than 30%.

For `CNc1ccc(C(=O)Nc2ccc(N(C)C)nn2)c(NC2CC(CCCC(=O)N3CCN(c4ccc(Nc5ncc6c(C)c(C(C)=O)c(=O)n(C7CCCC7)c6n5)nc4)CC3)C2)n1` (centres unmarked) [CPD-156, 2-((3-(4-(4-(6-((6-acetyl-8-cyclopentyl-5-methyl-7-oxo-7,8-dihydropyrido[2,3-d]pyrimidin-2-yl)amino)pyridin-3-yl)piperazin-1-yl)-4-oxobutyl)cyclobutyl)amino)-N-(6-(dimethylamino)pyridazin-3-yl)-6-(methylamino)nicotinamide], the inhibition at 0.04 µM was in the range of 50 to 80% and the inhibition at 0.2 µM is 50 to 80%.

`CNc1ccc(C(=O)Nc2ccon2)c(NC2CC3(CC(NC(=O)CN4CCN(c5ccc(Nc6ncc7c(C)c(C(C)=O)c(=O)n(C8CCCC8)c7n6)nc5)CC4)C3)C2)n1` (centres unmarked) [CPD-159, 2-((6-(2-(4-(6-((6-acetyl-8-cyclopentyl-5-methyl-7-oxo-7,8-dihydropyrido[2,3-d]pyrimidin-2-yl)amino)pyridin-3-yl)piperazin-1-yl)acetamido)spiro[3.3]heptan-2-yl)amino)-N-(isoxazol-3-yl)-6-(methylamino)nicotinamide]: the inhibition at 0.04 µM is less than 30% and the inhibition at 0.2 µM lay within 50 to 80%.

With `CNc1ccc(C(=O)Nc2cc(C)on2)c(NC2CC3(CC(NC(=O)CN4CCN(c5ccc(Nc6ncc7c(C)c(C(C)=O)c(=O)n(C8CCCC8)c7n6)nc5)CC4)C3)C2)n1` (centres unmarked) [CPD-160, 2-((6-(2-(4-(6-((6-acetyl-8-cyclopentyl-5-methyl-7-oxo-7,8-dihydropyrido[2,3-d]pyrimidin-2-yl)amino)pyridin-3-yl)piperazin-1-yl)acetamido)spiro[3.3]heptan-2-yl)amino)-6-(methylamino)-N-(5-methylisoxazol-3-yl)nicotinamide], the inhibition at 0.04 µM lay in the range of 50 to 80% and the inhibition at 0.2 µM was greater than 80%.

`CNc1ccc(C(=O)Nc2cccc(OC)n2)c(NC2CC3(CC(NC(=O)CN4CCN(c5ccc(Nc6ncc7c(C)c(C(C)=O)c(=O)n(C8CCCC8)c7n6)nc5)CC4)C3)C2)n1` (centres unmarked) [CPD-161, 2-((6-(2-(4-(6-((6-acetyl-8-cyclopentyl-5-methyl-7-oxo-7,8-dihydropyrido[2,3-d]pyrimidin-2-yl)amino)pyridin-3-yl)piperazin-1-yl)acetamido)spiro[3.3]heptan-2-yl)amino)-N-(6-methoxypyridin-2-yl)-6-(methylamino)nicotinamide] registered an inhibition at 0.04 µM of 50 to 80% and an inhibition at 0.2 µM greater than 80%.

As for `CNc1ccc(C(=O)Nc2cccc(C3CC3)n2)c(NC2CC(CNC(=O)CN3CCN(c4ccc(Nc5ncc6c(C)c(C(C)=O)c(=O)n(C7CCCC7)c6n5)nc4)CC3)C2)n1` (centres unmarked) [CPD-162, 2-((3-((2-(4-(6-((6-acetyl-8-cyclopentyl-5-methyl-7-oxo-7,8-dihydropyrido[2,3-d]pyrimidin-2-yl)amino)pyridin-3-yl)piperazin-1-yl)acetamido)methyl)cyclobutyl)amino)-N-(6-cyclopropylpyridin-2-yl)-6-(methylamino)nicotinamide], the inhibition at 0.04 µM fell in the range of 50 to 80% and the inhibition at 0.2 µM fell in the range of 50 to 80%.

For the molecule `[2H]C([2H])([2H])Nc1ccc(C(=O)Nc2cccc(C3CC3)n2)c(NC2CC3(CC(NC(=O)CN4CCN(c5ccc(Nc6ncc7c(C)c(C(C)=O)c(=O)n(C8CCCC8)c7n6)nc5)CC4)C3)C2)n1` (centres unmarked) [CPD-163, 2-((6-(2-(4-(6-((6-acetyl-8-cyclopentyl-5-methyl-7-oxo-7,8-dihydropyrido[2,3-d]pyrimidin-2-yl)amino)pyridin-3-yl)piperazin-1-yl)acetamido)spiro[3.3]heptan-2-yl)amino)-N-(6-cyclopropylpyridin-2-yl)-6-((methyl-d3)amino)nicotinamide], the inhibition at 0.04 µM was 50 to 80% and the inhibition at 0.2 µM was 50 to 80%.

Molecule `CNc1ccc(C(=O)Nc2ccc(N(C)C)nn2)c(NC2CC(COCC(=O)N3CCN(c4ccc(Nc5ncc6c(C)c(C(C)=O)c(=O)n(C7CCCC7)c6n5)nc4)CC3)C2)n1` (centres unmarked) [CPD-164, 2-((3-((2-(4-(6-((6-acetyl-8-cyclopentyl-5-methyl-7-oxo-7,8-dihydropyrido[2,3-d]pyrimidin-2-yl)amino)pyridin-3-yl)piperazin-1-yl)-2-oxoethoxy)methyl)cyclobutyl)amino)-N-(6-(dimethylamino)pyridazin-3-yl)-6-(methylamino)nicotinamide] returned an inhibition at 0.04 µM of 50 to 80% and an inhibition at 0.2 µM greater than 80%.

In turn, `CNc1ccc(C(=O)Nc2ccc(N(C)C)nn2)c(NC2CC(CNC(=O)N3CCN(c4ccc(Nc5ncc6c(C)c(C(C)=O)c(=O)n(C7CCCC7)c6n5)nc4)CC3)C2)n1` (centres unmarked) [CPD-166, 4-(6-((6-acetyl-8-cyclopentyl-5-methyl-7-oxo-7,8-dihydropyrido[2,3-d]pyrimidin-2-yl)amino)pyridin-3-yl)-N-((3-((3-((6-(dimethylamino)pyridazin-3-yl)carbamoyl)-6-(methylamino)pyridin-2-yl)amino)cyclobutyl)methyl)piperazine-1-carboxamide] had an inhibition at 0.04 µM of 50 to 80% and an inhibition at 0.2 µM of 50 to 80%.

Molecule `CNc1ccc(C(=O)Nc2ccc(N(C)C)nn2)c(NC2CC(OCC(=O)N3CCN(c4ccc(Nc5ncc6c(C)c(C(C)=O)c(=O)n(C7CCCC7)c6n5)nc4)CC3)C2)n1` (centres unmarked) [CPD-168, 2-((3-(2-(4-(6-((6-acetyl-8-cyclopentyl-5-methyl-7-oxo-7,8-dihydropyrido[2,3-d]pyrimidin-2-yl)amino)pyridin-3-yl)piperazin-1-yl)-2-oxoethoxy)cyclobutyl)amino)-N-(6-(dimethylamino)pyridazin-3-yl)-6-(methylamino)nicotinamide] returned an inhibition at 0.04 µM of 50 to 80% and an inhibition at 0.2 µM greater than 80%.
